# Measurements taken from patent US20100184674A1, “PROADRENOMEDULLIN ALONE OR IN COMBINATION WITH BIG GASTRIN I AS A THERAPEUTIC AGENT” (priority 2007, published 2010).
# Where no end group is shown, it is not given here. [ ]: non-standard residue; d: D form. pGlu = O=C1CC[C@@H](C(=O)O)N1
# Tests used:
# [1] = system: Primary Human endothelial cells (HUVEC); experiment: Endothelial cell migration assay; type: cell-based; details: 10 micrograms per ml; 22 hours
# HCMV strain AD169 = experiment: HCMV plaque formation assay in MRC-5 cells; details: for inhibition of HCMV plaque formation as compared to the virus control: 10 micrograms per ml, 7-10 days
# murine spleen cells = experiment: Th1/Th2 cytokine profiling assay (Ovalbumin restimulation); type: cell-based, Balb/c mice; details: 10 micrograms per ml, 72 hours
# [2] = system: hepatitis B virus (HBV) ayw strain; experiment: HBV assay in HepG2-2.2.15 cells (TaqMan PCR of secreted HBV DNA); type: cell-based; details: 10 micrograms per ml; six days; combination 0.95 mole peptide 1 and 1.05 mole peptide 2
# Excerpt: HepG2-2.2.15 is a stable cell line containing the hepatitis B virus (HBV) ayw strain genome (ATCC Cat. No. CRL-11997). Antiviral compounds blocking any late step of viral replication such as transcription, translation, pregenome encapsidation, reverse transcription, particle assembly and release can be identified and characterized using this cell line. In this assay, an active compound will reduce the production of secreted HBV from cells, measured by utilizing real time quantitative PCR (TaqMan) assay to directly and accurately measure HBV DNA copies. […] After 16-24 hours the confluent monolayer of HepG2-2.2.15 cells was washed and the medium was replaced with complete medium containing test peptides—10 micrograms per ml—in duplicate. Lamivudine (3TC) was used as the positive control, while media alone was added to the cells as a negative control (virus control). […] Six days following the initial administration of the peptides, the cell culture supernatants was collected, treated with pronase and DNAse and then used in a real-time quantitative TaqMan PCR assay. The PCR-amplified HBV DNA was detected in real-time by monitoring increases in fluorescence signals that result from the exonucleolytic degradation of a quenched fluorescence probe molecule that hybridizes to the amplified HBV DNA. […] Antiviral activity was calculated from the reduction in HBV DNA levels (% virus control). […]
# HIV-1IIIB = experiment: HIV-1 antiviral assay in CEM-SS cells (MTS readout)
# HUVEC = experiment: Endothelial tube formation assay; type: cell-based, human; details: 10 micrograms per ml; 20 hours
# Procedure: The endothelial tube formation assay is based on the ability of endothelial cells to form three-dimensional capillary-like tubular structures when cultured on a gel of basement membrane extract. […] Pre-labeled HUVEC with Calcein AM were seeded in a 96-well culture plate coated with extracellular metrix (Chemicon international Cat. ECM625) and treated with test peptides—10 micrograms per ml—in full growth medium. Positive control wes vehicle only. The endothelial cells were allowed to form tubes foe 20 hours and were then examined under an inverted fluorescent microscope. Duplicate wells for each treatment were photographed and quantitatevily analyzed for an average tubule length using image analysis software ImageProPlus. Raw data were expressed as average tubule lengths in pixels ±standard deviation. Statistic p values were computed using the Student's t-test.
# [3] = combination 0.95 mole peptide 1 and 1.05 mole peptide 2
Molecule,inhibition of the migration of human endothelial cells [1],inhibition of HCMV plaque formation as compared to the virus control (HCMV strain AD169),change of the production of IFN-γ (murine spleen cells; [3]),change of the production of TNF-alpha (murine spleen cells; [3]),inhibition of HBV replication as compared to the virus control infection [2] [%],antiviral activity of positive control compounds (HIV-1IIIB),further results
Ala-Arg-Leu-Asp-Val-Ala-Ser-Glu-Phe-Arg-Lys-Lys-Trp-Asn-Lys-Trp-Ala-Leu-Ser-Arg-NH2 (ARLDVASEFRKKWNKWALSR-NH2) [Peptide 1],did not inhibit,did not inhibit,did not significantly change,did not significantly change,10.0,,"production of IL-2, induced by (murine spleen cells): 44.3%; production of IL-4, induced by (murine spleen cells): 43.2%; change of the production of IL-5 (murine spleen cells; [3]): did not significantly change"
CC(C)(C)NC(=O)[C@@H]1CN(Cc2cccnc2)CCN1C[C@@H](O)C[C@@H](Cc1ccccc1)C(=O)N[C@H]1c2ccccc2C[C@H]1O [indinavir],,,,,,expected levels of antiviral activity,
"Nc1nc(O)c2ncn(COC(CO)CO)c2n1 [Ganciclovir, reference compound]",,,,,,,"antiviral activity of positive control compound (HCMV strain AD169; positive control, MRC-5 cells, HCMV AD169): expected levels of antiviral activity"
Cc1cn([C@H]2C[C@H](N=[N+]=[N-])[C@@H](CO)O2)c(=O)[nH]c1=O [AZT],,,,,,expected levels of antiviral activity,
Pyr-Leu-Gly-Pro-Gln-Gly-Pro-Pro-His-Leu-Val-Ala-Asp-Pro-Ser-Lys-Lys-Gln-Gly-Pro-Trp-Leu-Glu-Glu-Glu-Glu-Glu-Ala-Tyr-Gly-Trp-Met-Asp-Phe-NH2 ([pGlu]LGPQGPPHLVADPSKKQGPWLEEEEEAYGWMDF-NH2; SMILES CSCC[C@H](NC(=O)[C@H](Cc1c[nH]c2ccccc12)NC(=O)CNC(=O)[C@H](Cc1ccc(O)cc1)NC(=O)[C@H](C)NC(=O)[C@H](CCC(=O)O)NC(=O)[C@H](CCC(=O)O)NC(=O)[C@H](CCC(=O)O)NC(=O)[C@H](CCC(=O)O)NC(=O)[C@H](CCC(=O)O)NC(=O)[C@H](CC(C)C)NC(=O)[C@H](Cc1c[nH]c2ccccc12)NC(=O)[C@@H]1CCCN1C(=O)CNC(=O)[C@H](CCC(N)=O)NC(=O)[C@H](CCCCN)NC(=O)[C@H](CCCCN)NC(=O)[C@H](CO)NC(=O)[C@@H]1CCCN1C(=O)[C@H](CC(=O)O)NC(=O)[C@H](C)NC(=O)[C@@H](NC(=O)[C@H](CC(C)C)NC(=O)[C@H](Cc1c[nH]cn1)NC(=O)[C@@H]1CCCN1C(=O)[C@@H]1CCCN1C(=O)CNC(=O)[C@H](CCC(N)=O)NC(=O)[C@@H]1CCCN1C(=O)CNC(=O)[C@H](CC(C)C)NC(=O)[C@@H]1CCC(=O)N1)C(C)C)C(=O)N[C@@H](CC(=O)O)C(=O)N[C@@H](Cc1ccccc1)C(N)=O) [Peptide 2],35%,did not inhibit,did not significantly change,did not significantly change,11.3,,"production of IL-2, suppressed by (murine spleen cells): 100%; production of IL-4, suppressed by (murine spleen cells): 100%; production of IL-5, deceased by (murine spleen cells): 44.5%; inhibition of the tube formation of human endothelial cells (HUVEC): 9%"
